Results on 24 compounds are retold here after US9353107B2 (Aurigene Discovery Technologies Limited, priority 2012, dated 2016).

The assay has as its target T1, recombinant human ALK enzyme (ALK WT) (Homo sapiens, UniProt Q9UM73).
T1 construct: purchased Carna Biosciences 08-518
The assay can be described thus: ALK WT cell free enzymatic assay (TR-FRET). Format: biochemical. Particulars: 1 μM ATP; for IC50: 10 point dose response; for inhibition at 0.1 µM: compound at 100 nM; for inhibition at 0.1 µM / inhibition at 1 µM: 30 min pre-incubation; for inhibition at 1 µM: compound at 1 μM. In a few lines: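 Read-out is TR-FRET (665 nm/615 nm ratio) using an Eu-labeled anti-phosphotyrosine antibody. Compound is pre-incubated 30 min with recombinant human ALK, then reacted 30 min with 1 μM ATP and 40 nM Poly GT substrate. Values are percent inhibition at 100 nM and 1 μM, plus IC50 from 10-point variable-slope regression.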

T1 sequence (Q9UM73 1058-1620 limits assumed): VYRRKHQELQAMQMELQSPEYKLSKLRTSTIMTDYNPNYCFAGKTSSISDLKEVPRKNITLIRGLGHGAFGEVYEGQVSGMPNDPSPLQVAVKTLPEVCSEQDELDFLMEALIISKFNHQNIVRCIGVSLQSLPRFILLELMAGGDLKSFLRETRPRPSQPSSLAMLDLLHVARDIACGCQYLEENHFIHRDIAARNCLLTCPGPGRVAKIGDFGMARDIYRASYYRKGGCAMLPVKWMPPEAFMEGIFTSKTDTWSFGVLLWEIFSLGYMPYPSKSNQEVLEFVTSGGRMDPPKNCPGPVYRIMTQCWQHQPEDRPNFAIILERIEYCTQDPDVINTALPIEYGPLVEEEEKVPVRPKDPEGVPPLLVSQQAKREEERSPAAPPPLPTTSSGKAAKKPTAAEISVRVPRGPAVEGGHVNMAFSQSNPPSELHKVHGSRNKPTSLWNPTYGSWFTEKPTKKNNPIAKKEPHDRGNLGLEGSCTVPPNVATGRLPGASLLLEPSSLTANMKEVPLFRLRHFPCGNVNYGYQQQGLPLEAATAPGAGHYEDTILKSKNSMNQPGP

A word on the IC50: it is the midpoint of a concentration-inhibition curve. In general, inhibition refers to the drop in the measured response relative to a control, in per cent. In the case of `COc1cc(-c2cnc3[nH]cc(-c4cnn(Cc5cc(F)cc(F)c5)c4)c3c2)ccc1NS(C)(=O)=O` [Example 73, N-(4-(3-(1-(3,5-difluorobenzyl)-1H-pyrazol-4-yl)-1H-pyrrolo[2,3-b]pyridin-5-yl)-2-methoxyphenyl)methanesulfonamide], the IC50 is below 50 nM, the inhibition at 0.1 µM was 92% and the inhibition at 1 µM came to 97%.

With `COc1ccc(-c2cnc3[nH]cc(-c4cnn(CCc5ccccc5F)c4)c3c2)cc1NS(C)(=O)=O` [Example 74, N-(5-(3-(1-(2-fluorophenethyl)-1H-pyrazol-4-yl)-1H-pyrrolo[2,3-b]pyridin-5-yl)-2-methoxyphenyl)methanesulfonamide], the concentration for half-maximal inhibition (IC50) was in the range of 50 to 250 nM, the inhibition at 0.1 µM came to 51% and the inhibition at 1 µM came out at 92%.

On to `COc1ccc(-c2cnc3[nH]cc(-c4cnn(CCc5cccc(F)c5)c4)c3c2)cc1NS(C)(=O)=O` [Example 75, N-(5-(3-(1-(3-fluorophenethyl)-1H-pyrazol-4-yl)-1H-pyrrolo[2,3-b]pyridin-5-yl)-2-methoxyphenyl)methanesulfonamide], for which the half-maximal inhibitory concentration (IC50) was below 50 nM, the inhibition at 0.1 µM stood at 61% and the inhibition at 1 µM came out at 100%.

`COc1ccc(-c2cnc3[nH]cc(-c4cnn(CCc5ccc(F)cc5)c4)c3c2)cc1NS(C)(=O)=O` [Example 76, N-(5-(3-(1-(4-fluorophenethyl)-1H-pyrazol-4-yl)-1H-pyrrolo[2,3-b]pyridin-5-yl)-2-methoxyphenyl)methanesulfonamide]: the IC50 was 50 to 250 nM, the inhibition at 0.1 µM was determined as 32% and the inhibition at 1 µM came out at 94%.

For the compound `CS(=O)(=O)Nc1cc(-c2cnc3[nH]cc(-c4cnn(CCc5ccccc5)c4)c3c2)ccc1F` [Example 77, N-(2-fluoro-5-(3-(1-phenethyl-1H-pyrazol-4-yl)-1H-pyrrolo[2,3-b]pyridin-5-yl)phenyl)methane sulfonamide], the IC50 was below 50 nM, the inhibition at 0.1 µM came to 85% and the inhibition at 1 µM is 100%.

Consider `CS(=O)(=O)Nc1cc(-c2cnc3[nH]cc(-c4cnn(Cc5cccc(F)c5)c4)c3c2)ccc1F` [Example 78, N-(2-fluoro-5-(3-(1-(3-fluorobenzyl)-1H-pyrazol-4-yl)-1H-pyrrolo[2,3-b]pyridin-5-yl)phenyl) methanesulfonamide], for which the concentration for half-maximal inhibition (IC50) is below 50 nM, the inhibition at 0.1 µM turned out to be 100% and the inhibition at 1 µM came out at 101%.

Consider `CS(=O)(=O)Nc1cc(-c2cnc3[nH]cc(-c4cnn(Cc5cc(F)cc(F)c5)c4)c3c2)ccc1F` [Example 79, N-(5-(3-(1-(3,5-difluorobenzyl)-1H-pyrazol-4-yl)-1H-pyrrolo[2,3-b]pyridin-5-yl)-2-fluorophenyl) methanesulfonamide], for which the IC50 is below 50 nM, the inhibition at 0.1 µM was found to be 101% and the inhibition at 1 µM was 102%.

`Cc1nn(Cc2cc(F)cc(F)c2)c(C)c1-c1c[nH]c2ncc(-c3ccc(F)c(NS(C)(=O)=O)c3)cc12` [Example 80, N-(5-(3-(1-(3,5-difluorobenzyl)-3,5-dimethyl-1H-pyrazol-4-yl)-1H-pyrrolo[2,3-b]pyridin-5-yl)-2-fluorophenyl)methanesulfonamide]: the half-maximal inhibitory concentration (IC50) was 50 to 250 nM, the inhibition at 0.1 µM turned out to be 65% and the inhibition at 1 µM is 93%.

For `COc1cc(-c2cnc3[nH]cc(-c4cnn(Cc5cccc(F)c5)c4)c3c2)cnc1N` [Example 81, 5-(3-(1-(3-fluorobenzyl)-1H-pyrazol-4-yl)-1H-pyrrolo[2,3-b]pyridin-5-yl)-3-methoxypyridin-2-amine], the IC50 is below 50 nM, the inhibition at 0.1 µM came out at 94% and the inhibition at 1 µM was found to be 96%.

As to `Fc1cccc(Cn2cc(-c3c[nH]c4ncc(-c5ccc(C6CCNCC6)cc5)cc34)cn2)c1` [Example 82, 3-(1-(3-fluorobenzyl)-1H-pyrazol-4-yl)-5-(4-(piperidin-4-yl)phenyl)-1H-pyrrolo[2,3-b]pyridine], the IC50 was below 50 nM, the inhibition at 0.1 µM is 99% and the inhibition at 1 µM stood at 100%.

For `C[C@H](O)CN1CCC(c2ccc(-c3cnc4[nH]cc(-c5cnn(Cc6cccc(F)c6)c5)c4c3)cc2)CC1` [Example 82A, (S)-1-(4-(4-(3-(1-(3-fluorobenzyl)-1H-pyrazol-4-yl)-1H-pyrrolo[2,3-b]pyridin-5-yl)phenyl)piperidin-1-yl)propan-2-ol], the IC50 is below 50 nM, the inhibition at 0.1 µM came to 96% and the inhibition at 1 µM is 98%.

For `CN1CCC(c2ccc(-c3cnc4[nH]cc(-c5cnn(Cc6cccc(F)c6)c5)c4c3)cc2)CC1` [Example 83, 3-(1-(3-fluorobenzyl)-1H-pyrazol-4-yl)-5-(4-(1-methylpiperidin-4-yl)phenyl)-1H-pyrrolo[2,3-b]pyridine], the IC50 is below 50 nM, the inhibition at 0.1 µM turned out to be 96% and the inhibition at 1 µM came to 100%.

Take `Fc1cccc(Cn2cc(-c3c[nH]c4ncc(-c5ccc(C6CCNCC6)c(F)c5)cc34)cn2)c1` [Example 84, 5-(3-fluoro-4-(piperidin-4-yl)phenyl)-3-(1-(3-fluorobenzyl)-1H-pyrazol-4-yl)-1H-pyrrolo[2,3-b]pyridine]: the half-inhibitory concentration (IC50) is below 50 nM, the inhibition at 0.1 µM was determined as 98% and the inhibition at 1 µM stood at 100%.

For the compound `Cc1cccc(Cn2cc(-c3c[nH]c4ncc(-c5ccc(C6CCNCC6)cc5)cc34)cn2)c1` [Example 85, 3-(1-(3-methylbenzyl)-1H-pyrazol-4-yl)-5-(4-(piperidin-4-yl)phenyl)-1H-pyrrolo[2,3-b]pyridine], the IC50 is below 50 nM, the inhibition at 0.1 µM is 95% and the inhibition at 1 µM turned out to be 100%.

`COc1cc(-c2cnc3[nH]cc(-c4cnn(Cc5cccc(F)c5)c4)c3c2)ccc1C1CCNCC1` [Example 86, 3-(1-(3-fluorobenzyl)-1H-pyrazol-4-yl)-5-(3-methoxy-4-(piperidin-4-yl)phenyl)-1H-pyrrolo[2,3-b]pyridine]: the half-maximal inhibitory concentration (IC50) was below 50 nM, the inhibition at 0.1 µM was 96% and the inhibition at 1 µM was 98%.

Turning to `COc1cccc(Cn2cc(-c3c[nH]c4ncc(-c5ccc(C6CCNCC6)cc5)cc34)cn2)c1` [Example 87, 3-(1-(3-methoxybenzyl)-1H-pyrazol-4-yl)-5-(4-(piperidin-4-yl)phenyl)-1H-pyrrolo[2,3-b]pyridine], the IC50 is below 50 nM, the inhibition at 0.1 µM worked out at 84% and the inhibition at 1 µM is 99%.

With `c1ccc(CCn2cc(-c3c[nH]c4ncc(-c5ccc(C6CCNCC6)cc5)cc34)cn2)cc1` [Example 88, 3-(1-phenethyl-1H-pyrazol-4-yl)-5-(4-(piperidin-4-yl)phenyl)-1H-pyrrolo[2,3-b]pyridine], the half-inhibitory concentration (IC50) was below 50 nM, the inhibition at 0.1 µM was 89% and the inhibition at 1 µM amounted to 99%.

For `c1cncc(Cn2cc(-c3c[nH]c4ncc(-c5ccc(C6CCNCC6)cc5)cc34)cn2)c1` [Example 89, 5-(4-(piperidin-4-yl)phenyl)-3-(1-(pyridin-3-ylmethyl)-1H-pyrazol-4-yl)-1H-pyrrolo[2,3-b]pyridine], the 50% inhibitory concentration (IC50) is below 50 nM, the inhibition at 0.1 µM is 84% and the inhibition at 1 µM worked out at 98%.

Regarding `Cc1nn(Cc2cccc(F)c2)cc1-c1c[nH]c2ncc(-c3ccc(C4CCNCC4)cc3)cc12` [Example 90, 3-(1-(3-fluorobenzyl)-3-methyl-1H-pyrazol-4-yl)-5-(4-(piperidin-4-yl)phenyl)-1H-pyrrolo[2,3-b]pyridine], the IC50 was below 50 nM, the inhibition at 0.1 µM came to 97% and the inhibition at 1 µM stood at 100%.

On to `Cc1c(-c2c[nH]c3ncc(-c4ccc(C5CCNCC5)cc4)cc23)cnn1Cc1cccc(F)c1` [Example 91, 3-(1-(3-fluorobenzyl)-5-methyl-1H-pyrazol-4-yl)-5-(4-(piperidin-4-yl)phenyl)-1H-pyrrolo[2,3-b]pyridine], for which the concentration for half-maximal inhibition (IC50) is below 50 nM, the inhibition at 0.1 µM came to 99% and the inhibition at 1 µM was determined as 100%.

With `Cc1nn(Cc2cccc(F)c2)c(C)c1-c1c[nH]c2ncc(-c3ccc(C4CCNCC4)cc3)cc12` [Example 92, 3-(1-(3-fluorobenzyl)-3,5-dimethyl-1H-pyrazol-4-yl)-5-(4-(piperidin-4-yl)phenyl)-1H-pyrrolo[2,3-b]pyridine], the IC50 is below 50 nM, the inhibition at 0.1 µM is 98% and the inhibition at 1 µM turned out to be 100%.

Regarding `c1ccc(Cn2cc(-c3c[nH]c4ncc(-c5ccc(C6CCNCC6)cc5)cc34)cn2)nc1` [Example 93, 5-(4-(piperidin-4-yl)phenyl)-3-(1-(pyridin-2-ylmethyl)-1H-pyrazol-4-yl)-1H-pyrrolo[2,3-b]pyridine], the IC50 was below 50 nM, the inhibition at 0.1 µM stood at 79% and the inhibition at 1 µM was determined as 97%.

Regarding `Cc1nn(Cc2cccc(F)c2)c(C)c1-c1c[nH]c2ncc(-c3cccc(NC4CCNCC4)c3)cc12` [Example 94, N-(3-(3-(1-(3-fluorobenzyl)-3,5-dimethyl-1H-pyrazol-4-yl)-1H-pyrrolo[2,3-b]pyridin-5-yl)phenyl)piperidin-4-amine], the half-inhibitory concentration (IC50) was below 50 nM, the inhibition at 0.1 µM stood at 98% and the inhibition at 1 µM came out at 100%.

Turning to `c1ccc(CCn2cc(-c3c[nH]c4ncc(-c5cccc(NC6CCNCC6)c5)cc34)cn2)cc1` [Example 95, N-(3-(3-(1-phenethyl-1H-pyrazol-4-yl)-1H-pyrrolo[2,3-b]pyridin-5-yl)phenyl)piperidin-4-amine], the IC50 fell in the range of 50 to 250 nM, the inhibition at 0.1 µM was found to be 83% and the inhibition at 1 µM was 99%.
